According to PMC5318439, “The Novel Toll-Like Receptor 2 Agonist SUP3 Enhances Antigen Presentation and T Cell Activation by Dendritic Cells” (Frontiers in Immunology, 2017):
Where a SMILES comes first, the peptide text is derived from it. The star is where a group is joined. X1 = CCCCCCCCCCCCCCNC(=O)OC[C@H](C*)OC(=O)NCCCCCCCCCCCCCC; Palmitoyl = CCCCCCCCCCCCCCCC(=O)*

Target: TLR2 (Homo sapiens, UniProt O60603)
Test: Affinity of TLR2 agonist for TLR2
Format: binding
Conditions: compared with Pam3; Figure S3A
Source text: Pam3 is a lipopeptide and serves as a TLR2 agonist through binding to TLR2/TLR1 heterodimer. Although Pam3 is widely used as a TLR2 agonist, some intrinsic problems remain in detailed mechanism studies and drug development. The two ester groups of Pam3 can be easily hydrolyzed in plasma, and the hydroxyl group in serine could be readily oxidized in physiological conditions (Figure S1A in Supplementary Material). […] In addition, we displaced serine residue in Pam3 with glycine residue to eliminate this chiral center (Figures S1A,B in Supplementary Material). Since the third lysine residue in Pam3 is crucial for H bonding, we kept three lysine residues in the new molecule and removed the forth lysine residue to further reduce the molecular weight of the new TLR2 agonist, (2S,5S,8S,14R,18R)-2,5,8-tris(4-aminobutyl)-4,7,10,13,21-pentaoxo-14-palmitamido-18-((tetradecylcarbamoyl)oxy)-20-oxa-16-thia-3,6,9,12,22-pentaazahexatriacontan-1-oic acid. It is termed SUP3 (Figure 1A; Figures S1A,B in Supplementary Material). Chemical characterization of SUP3 by ^1H nuclear magnetic resonance and electrospray ionization mass spectrum analysis further confirm the structure (Figures S2A,B in Supplementary Material).

Sequence of TLR2 (O60603 21-784, species assumed): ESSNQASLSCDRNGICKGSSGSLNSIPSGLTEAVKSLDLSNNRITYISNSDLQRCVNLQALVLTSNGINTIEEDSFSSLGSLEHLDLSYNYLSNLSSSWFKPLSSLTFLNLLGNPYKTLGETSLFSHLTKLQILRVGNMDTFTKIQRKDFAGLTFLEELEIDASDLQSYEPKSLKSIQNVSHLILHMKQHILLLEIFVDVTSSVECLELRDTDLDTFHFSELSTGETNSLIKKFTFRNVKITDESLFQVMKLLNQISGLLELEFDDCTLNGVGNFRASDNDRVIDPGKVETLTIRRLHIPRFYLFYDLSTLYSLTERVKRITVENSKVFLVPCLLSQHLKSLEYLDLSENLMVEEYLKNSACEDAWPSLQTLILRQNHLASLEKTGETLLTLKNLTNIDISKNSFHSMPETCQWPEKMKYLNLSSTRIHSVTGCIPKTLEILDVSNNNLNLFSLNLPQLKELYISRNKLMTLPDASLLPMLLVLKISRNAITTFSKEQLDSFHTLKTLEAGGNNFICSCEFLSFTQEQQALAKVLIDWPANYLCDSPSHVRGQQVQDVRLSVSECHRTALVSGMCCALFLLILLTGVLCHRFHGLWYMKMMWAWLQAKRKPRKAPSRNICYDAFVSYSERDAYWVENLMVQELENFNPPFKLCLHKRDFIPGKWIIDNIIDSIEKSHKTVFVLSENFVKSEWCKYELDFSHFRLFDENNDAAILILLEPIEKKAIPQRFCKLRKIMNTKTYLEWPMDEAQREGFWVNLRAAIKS

With `CCCCCCCCCCCCCCCC(=O)N[C@@H](CSC[C@@H](COC(=O)NCCCCCCCCCCCCCC)OC(=O)NCCCCCCCCCCCCCC)C(=O)NCC(=O)N[C@@H](CCCCN)C(=O)N[C@@H](CCCCN)C(=O)N[C@@H](CCCCN)C(=O)O` [SUP3, (2S,5S,8S,14R,18R)-2,5,8-tris(4-aminobutyl)-4,7,10,13,21-pentaoxo-14-palmitamido-18-((tetradecylcarbamoyl)oxy)-20-oxa-16-thia-3,6,9,12,22-pentaazahexatriacontan-1-oic acid] (Palmitoyl-C(X1)GKKK-OH) the affinity was “comparable with Pam3”.
